Data reported in PubChem BioAssay (NCI).
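Following 48 hours of exposure in 96-well plates, responses at five concentrations were used to interpolate endpoints linearly. GI50: concentration for 50% inhibition of growth. TGI denotes the concentration required for complete inhibition of growth.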

What follows are compounds tested on SK-MEL-28 melanoma (assay: NCI anticancer screen, dose series, 48 h).
In the case of `C=C(C)[C@@]1(O[Si](C)(C)C)CCCC[C@@H]1CC(Sc1ccccc1)Sc1ccccc1`, the TGI is reported as 37 µM. `CCN1C(=O)N(CC)C2Nn3c(s/c(=C4\C(=O)N(C)c5ccccc54)c3=O)=NC21` (stereo not drawn) showed a GI50 of 6.45 µM and a TGI greater than 100 µM. `O=C(c1ccccc1)N1C(=S)N=C(Nc2ccccc2)C1=Nc1ccccc1` gave a TGI greater than 100 µM. `NC(=O)c1ncn2c1NC(=O)CC2` was tested, and the TGI was greater than 100 µM. Work on `O=C(Nc1ccc(-n2cc(-c3ccncc3)c(-c3ccc(O)c(Cl)c3)n2)cc1)Nc1cccc(Cl)c1Cl` yielded a GI50 of 5.8 µM and a TGI of 18 µM. `O=C1CCCc2cc3c(cc21)CC1(C3)Cc2ccc3c(c2C1)C(=O)CCC3` (stereo not drawn) was tested, and the TGI was 80.6 µM. Work on `COc1ccccc1N1CCN(CCCNC(=O)c2cc(Cl)c(N)c(Cl)c2)CC1` yielded a TGI greater than 100 µM. `C[C@]12CC[C@H](O)C=C1CC[C@@H]1[C@@H]2CC[C@]2(C)C(c3ccc(=O)oc3)CC[C@]12O` (stereo partly drawn) was tested, and the TGI was 0.222 µM. With `COc1cc(CC(C)N)ccc1O` (stereo not drawn) the TGI was greater than 100 µM. In the case of `O=C([CH-]C(=O)c1ccccc1)c1ccccc1.O=C([CH-]C(=O)c1ccccc1)c1ccccc1.[O]=[U+2]=[O]`, the GI50 is reported as 3.49 µM and the TGI is reported as 19.9 µM.

What follows are compounds tested on RXF 393 renal (assay: NCI anticancer screen, dose series, 48 h).
`CC1=CC(=O)CC2(C)CCC(C(C)CC(=O)CC(C)C)CC12` (stereo not drawn) showed a TGI greater than 100 µM. `CC1(C)[C@@H](Cn2cnc3c(Cl)nc(N)nc32)CC[C@@]1(C)CO` was tested, and the TGI was greater than 100 µM. With `O=C(CCCN1CCC2(CC1)C(=NC1CCCCC1)NC(=O)N2c1ccccc1)c1ccc(F)cc1` the TGI was 89 µM. `CCOC(=O)[C@@H]1ON2O[C@@H](OC3CCCC3(c3ccccc3)c3ccccc3)C[C@H]3OC(=O)[C@@H]1C32` (stereo partly drawn) showed a TGI of 48.2 µM. Work on `COc1cc2c(c(O)c1O)-c1ccc(OC)c(=O)cc1C(NC(C)=O)CC2` (stereo not drawn) yielded a TGI of 43.8 µM. In the case of `CC(C)(C)C(=O)C(Cc1ccccc1)C(=O)C(C)(C)C`, the TGI is reported as greater than 100 µM. `C=C(C)[C@@]1(O[Si](C)(C)C)CCCC[C@@H]1CC(Sc1ccccc1)Sc1ccccc1` was tested, and the TGI was 24.6 µM. `O=C(c1ccccc1)N1C(=S)N=C(Nc2ccccc2)C1=Nc1ccccc1` was tested, and the TGI was greater than 100 µM. Compound `NC(=O)c1ncn2c1NC(=O)CC2` has a TGI greater than 100 µM. Work on `O=C(Nc1ccc(-n2cc(-c3ccncc3)c(-c3ccc(O)c(Cl)c3)n2)cc1)Nc1cccc(Cl)c1Cl` yielded a GI50 of 0.973 µM and a TGI of 5.25 µM. `O=C1CCCc2cc3c(cc21)CC1(C3)Cc2ccc3c(c2C1)C(=O)CCC3` (stereo not drawn) was tested, and the TGI was greater than 100 µM. `COc1ccccc1N1CCN(CCCNC(=O)c2cc(Cl)c(N)c(Cl)c2)CC1` was tested, and the TGI was 91 µM. For `C[C@]12CC[C@H](O)C=C1CC[C@@H]1[C@@H]2CC[C@]2(C)C(c3ccc(=O)oc3)CC[C@]12O` (stereo partly drawn), the TGI was less than 0.0125 µM. In the case of `COc1cc(CC(C)N)ccc1O` (stereo not drawn), the TGI is reported as greater than 100 µM. In the case of `O=C([CH-]C(=O)c1ccccc1)c1ccccc1.O=C([CH-]C(=O)c1ccccc1)c1ccccc1.[O]=[U+2]=[O]`, the GI50 is reported as 2.35 µM and the TGI is reported as 6.22 µM.

What follows are compounds tested on NCI-H226 lung (assay: NCI anticancer screen, dose series, 48 h).
`CC1=CC(=O)CC2(C)CCC(C(C)CC(=O)CC(C)C)CC12` (stereo not drawn) was tested, and the TGI was 63.2 µM. With `CC(C)(C)OC(=O)C1C(=O)NC(=O)CC1C(COCc1ccccc1)OCc1ccccc1` (stereo not drawn) the TGI was 39.4 µM. In the case of `CC1(C)[C@@H](Cn2cnc3c(Cl)nc(N)nc32)CC[C@@]1(C)CO`, the TGI is reported as 91.7 µM. In the case of `O=C(CCCN1CCC2(CC1)C(=NC1CCCCC1)NC(=O)N2c1ccccc1)c1ccc(F)cc1`, the TGI is reported as 32.3 µM. In the case of `CCOC(=O)[C@@H]1ON2O[C@@H](OC3CCCC3(c3ccccc3)c3ccccc3)C[C@H]3OC(=O)[C@@H]1C32` (stereo partly drawn), the TGI is reported as greater than 100 µM. `COc1cc2c(c(O)c1O)-c1ccc(OC)c(=O)cc1C(NC(C)=O)CC2` (stereo not drawn) gave a TGI of 92.7 µM. `CC(C)(C)C(=O)C(Cc1ccccc1)C(=O)C(C)(C)C` gave a TGI greater than 100 µM. `C=C(C)[C@@]1(O[Si](C)(C)C)CCCC[C@@H]1CC(Sc1ccccc1)Sc1ccccc1` showed a TGI of 32.2 µM. With `CCN1C(=O)N(CC)C2Nn3c(s/c(=C4\C(=O)N(C)c5ccccc54)c3=O)=NC21` (stereo not drawn) the GI50 was greater than 100 µM and the TGI was greater than 100 µM. Compound `O=C(c1ccccc1)N1C(=S)N=C(Nc2ccccc2)C1=Nc1ccccc1` has a TGI greater than 100 µM. For `NC(=O)c1ncn2c1NC(=O)CC2`, the TGI was greater than 100 µM. Work on `O=C(Nc1ccc(-n2cc(-c3ccncc3)c(-c3ccc(O)c(Cl)c3)n2)cc1)Nc1cccc(Cl)c1Cl` yielded a GI50 greater than 32.5 µM and a TGI greater than 32.5 µM. `O=C1CCCc2cc3c(cc21)CC1(C3)Cc2ccc3c(c2C1)C(=O)CCC3` (stereo not drawn) showed a TGI of 90.1 µM. Compound `COc1ccccc1N1CCN(CCCNC(=O)c2cc(Cl)c(N)c(Cl)c2)CC1` has a TGI of 98 µM. `C[C@]12CC[C@H](O)C=C1CC[C@@H]1[C@@H]2CC[C@]2(C)C(c3ccc(=O)oc3)CC[C@]12O` (stereo partly drawn) gave a TGI of 0.154 µM. `COc1cc(CC(C)N)ccc1O` (stereo not drawn) was tested, and the TGI was greater than 100 µM.

The compounds below were run on SNB-75 CNS (assay: NCI anticancer screen, dose series, 48 h).
In the case of `CC1=CC(=O)CC2(C)CCC(C(C)CC(=O)CC(C)C)CC12` (stereo not drawn), the TGI is reported as greater than 100 µM. `CC1(C)[C@@H](Cn2cnc3c(Cl)nc(N)nc32)CC[C@@]1(C)CO` showed a TGI greater than 100 µM. Work on `O=C(CCCN1CCC2(CC1)C(=NC1CCCCC1)NC(=O)N2c1ccccc1)c1ccc(F)cc1` yielded a TGI of 56 µM. Work on `CCOC(=O)[C@@H]1ON2O[C@@H](OC3CCCC3(c3ccccc3)c3ccccc3)C[C@H]3OC(=O)[C@@H]1C32` (stereo partly drawn) yielded a TGI greater than 100 µM. For `COc1cc2c(c(O)c1O)-c1ccc(OC)c(=O)cc1C(NC(C)=O)CC2` (stereo not drawn), the TGI was 16.6 µM. `CC(C)(C)C(=O)C(Cc1ccccc1)C(=O)C(C)(C)C` was tested, and the TGI was greater than 100 µM. `C=C(C)[C@@]1(O[Si](C)(C)C)CCCC[C@@H]1CC(Sc1ccccc1)Sc1ccccc1` gave a TGI of 25.7 µM. Work on `O=C(c1ccccc1)N1C(=S)N=C(Nc2ccccc2)C1=Nc1ccccc1` yielded a TGI greater than 100 µM. `NC(=O)c1ncn2c1NC(=O)CC2` showed a TGI greater than 100 µM. `O=C(Nc1ccc(-n2cc(-c3ccncc3)c(-c3ccc(O)c(Cl)c3)n2)cc1)Nc1cccc(Cl)c1Cl` showed a GI50 of 5.51 µM and a TGI greater than 32.5 µM. Work on `O=C1CCCc2cc3c(cc21)CC1(C3)Cc2ccc3c(c2C1)C(=O)CCC3` (stereo not drawn) yielded a TGI of 80.4 µM. In the case of `COc1ccccc1N1CCN(CCCNC(=O)c2cc(Cl)c(N)c(Cl)c2)CC1`, the TGI is reported as greater than 100 µM. In the case of `C[C@]12CC[C@H](O)C=C1CC[C@@H]1[C@@H]2CC[C@]2(C)C(c3ccc(=O)oc3)CC[C@]12O` (stereo partly drawn), the TGI is reported as 0.0736 µM. In the case of `COc1cc(CC(C)N)ccc1O` (stereo not drawn), the TGI is reported as greater than 100 µM.

What follows are compounds tested on UACC-257 melanoma (assay: NCI anticancer screen, dose series, 48 h).
In the case of `CC1=CC(=O)CC2(C)CCC(C(C)CC(=O)CC(C)C)CC12` (stereo not drawn), the TGI is reported as 64.1 µM. With `CC(C)(C)OC(=O)C1C(=O)NC(=O)CC1C(COCc1ccccc1)OCc1ccccc1` (stereo not drawn) the TGI was 41.4 µM. Compound `CC1(C)[C@@H](Cn2cnc3c(Cl)nc(N)nc32)CC[C@@]1(C)CO` has a TGI of 79.2 µM. `O=C(CCCN1CCC2(CC1)C(=NC1CCCCC1)NC(=O)N2c1ccccc1)c1ccc(F)cc1` showed a TGI of 36 µM. With `CCOC(=O)[C@@H]1ON2O[C@@H](OC3CCCC3(c3ccccc3)c3ccccc3)C[C@H]3OC(=O)[C@@H]1C32` (stereo partly drawn) the TGI was 50.6 µM. For `COc1cc2c(c(O)c1O)-c1ccc(OC)c(=O)cc1C(NC(C)=O)CC2` (stereo not drawn), the TGI was greater than 100 µM. With `CC(C)(C)C(=O)C(Cc1ccccc1)C(=O)C(C)(C)C` the TGI was greater than 100 µM. `C=C(C)[C@@]1(O[Si](C)(C)C)CCCC[C@@H]1CC(Sc1ccccc1)Sc1ccccc1` was tested, and the TGI was 29.7 µM. Work on `CCN1C(=O)N(CC)C2Nn3c(s/c(=C4\C(=O)N(C)c5ccccc54)c3=O)=NC21` (stereo not drawn) yielded a GI50 of 7.71 µM and a TGI greater than 100 µM. `O=C(c1ccccc1)N1C(=S)N=C(Nc2ccccc2)C1=Nc1ccccc1` gave a TGI greater than 100 µM. For `NC(=O)c1ncn2c1NC(=O)CC2`, the TGI was greater than 100 µM. Compound `O=C(Nc1ccc(-n2cc(-c3ccncc3)c(-c3ccc(O)c(Cl)c3)n2)cc1)Nc1cccc(Cl)c1Cl` has a GI50 of 18.6 µM and a TGI greater than 32.5 µM. `O=C1CCCc2cc3c(cc21)CC1(C3)Cc2ccc3c(c2C1)C(=O)CCC3` (stereo not drawn) showed a TGI of 26.5 µM. `COc1ccccc1N1CCN(CCCNC(=O)c2cc(Cl)c(N)c(Cl)c2)CC1` gave a TGI of 47.8 µM. For `C[C@]12CC[C@H](O)C=C1CC[C@@H]1[C@@H]2CC[C@]2(C)C(c3ccc(=O)oc3)CC[C@]12O` (stereo partly drawn), the TGI was 0.0777 µM. `COc1cc(CC(C)N)ccc1O` (stereo not drawn) gave a TGI greater than 100 µM. With `O=C([CH-]C(=O)c1ccccc1)c1ccccc1.O=C([CH-]C(=O)c1ccccc1)c1ccccc1.[O]=[U+2]=[O]` the GI50 was 7.84 µM and the TGI was 35.5 µM.
